This passage reports relative viability results from the supplement of paper PMC10307832.

Holding throughout (experiment): relative viability (nuclei count vs DMSO), 5 days (fraction); higher = more cells survive
Compound in experiment [1]: C/C(=N\NC(=S)N1CCC1)/C2=CC=CC=N2 + Nc1ncn([C@H]2C[C@H](O)[C@@H](CO)O2)c(=O)n1 [Decitabine] (partner 2 µM)
The procedure, abridged:
(§1)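 Lung cancer cell lines were pin-tool dosed in 1536-well plates on the day after seeding, with either a lone drug or a fixed anchor-drug dose plus five library-drug doses (not always all listed) in √10 steps. Nuclei were counted on 4× images after 5 days. Relative viability is the ratio of treated-well to vehicle-well nuclei counts, with each value a median of duplicate plates.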

Compound in experiment [2]: C/C(=N\NC(=S)N1CCC1)/C2=CC=CC=N2 + CS(=O)(=O)CCNCc1ccc(-c2ccc3ncnc(Nc4ccc(OCc5cccc(F)c5)c(Cl)c4)c3c2)o1 [Lapatinib] (partner 2 µM)
The procedure, abridged: as §1

Compound in experiment [3]: C/C(=N\NC(=S)N1CCC1)/C2=CC=CC=N2 + CCNC(=O)c1noc(-c2cc(C(C)C)c(O)cc2O)c1-c1ccc(CN2CCOCC2)cc1 [Luminespib] (partner 0.01 µM)
The method in brief: as §1

Compound in experiment [4]: C/C(=N\NC(=S)N1CCC1)/C2=CC=CC=N2 + O=C(c1cc(Cc2n[nH]c(=O)c3ccccc23)ccc1F)N1CCN(C(=O)C2CC2)CC1 [Olaparib] (partner 8 µM)
The method in brief: as §1

Regarding NCI-H322M, the relative viability was 0.353 in experiment [1] (first compound 0.05 µM); 0.413 in experiment [1] (first compound 0.1581 µM); 0.418 in experiment [1] (first compound 0.5 µM); 0.47 in experiment [1] (first compound 1.581 µM); 0.455 in experiment [1] (first compound 5 µM); 0.258 in experiment [2] (first compound 0.05 µM). For the same cell line, the relative viability in experiment [2] (first compound 0.1581 µM) came out at 0.281; in experiment [2] (first compound 0.5 µM) it was 0.222; in experiment [2] (first compound 1.581 µM), 0.243; in experiment [2] (first compound 5 µM) it was 0.301; in experiment [3] (first compound 0.05 µM) it was 0.314; in experiment [3] (first compound 0.1581 µM) it was 0.327. Also, the relative viability in experiment [3] (first compound 0.5 µM) was determined as 0.289; in experiment [3] (first compound 1.581 µM), 0.263; in experiment [3] (first compound 5 µM), 0.309; in experiment [4] (first compound 0.05 µM), 0.334; in experiment [4] (first compound 0.1581 µM) it was 0.334; in experiment [4] (first compound 0.5 µM), 0.398. Besides, the relative viability in experiment [4] (first compound 1.581 µM) came out at 0.398; in experiment [4] (first compound 5 µM), 0.467.
NCI-H1975: the relative viability was determined as 0.151 in experiment [1] (first compound 0.05 µM); 0.18 in experiment [1] (first compound 0.1581 µM); 0.154 in experiment [1] (first compound 0.5 µM); 0.156 in experiment [1] (first compound 1.581 µM); 0.184 in experiment [1] (first compound 5 µM); 0.132 in experiment [2] (first compound 0.05 µM). In addition, the relative viability worked out at 0.151 in experiment [2] (first compound 0.1581 µM); 0.147 in experiment [2] (first compound 0.5 µM); 0.13 in experiment [2] (first compound 1.581 µM); 0.15 in experiment [2] (first compound 5 µM); 0.118 in experiment [3] (first compound 0.05 µM); 0.148 in experiment [3] (first compound 0.1581 µM). The relative viability in experiment [3] (first compound 0.5 µM) was 0.206; in experiment [3] (first compound 1.581 µM), 0.107; in experiment [3] (first compound 5 µM), 0.151; in experiment [4] (first compound 0.05 µM) it was 0.111; in experiment [4] (first compound 0.1581 µM), 0.113; in experiment [4] (first compound 0.5 µM), 0.118. In addition, the relative viability in experiment [4] (first compound 1.581 µM) is 0.111; in experiment [4] (first compound 5 µM), 0.133.
For the cell line NCI-H1437, the relative viability in experiment [1] (first compound 0.05 µM) was found to be 0.263; in experiment [1] (first compound 0.1581 µM) it was 0.248; in experiment [1] (first compound 0.5 µM), 0.246; in experiment [1] (first compound 1.581 µM), 0.199; in experiment [1] (first compound 5 µM) it was 0.172; in experiment [2] (first compound 0.05 µM), 0.127. The relative viability in experiment [2] (first compound 0.1581 µM) stood at 0.128; in experiment [2] (first compound 0.5 µM), 0.109; in experiment [2] (first compound 1.581 µM) it was 0.0868; in experiment [2] (first compound 5 µM) it was 0.0855; in experiment [3] (first compound 0.05 µM), 0.238; in experiment [3] (first compound 0.1581 µM) it was 0.215. Moreover, the relative viability in experiment [3] (first compound 0.5 µM) was determined as 0.216; in experiment [3] (first compound 1.581 µM) it was 0.18; in experiment [3] (first compound 5 µM), 0.14; in experiment [4] (first compound 0.05 µM), 0.226; in experiment [4] (first compound 0.1581 µM) it was 0.213; in experiment [4] (first compound 0.5 µM), 0.235. For the same cell line, the relative viability amounted to 0.143 in experiment [4] (first compound 1.581 µM) and 0.119 in experiment [4] (first compound 5 µM).
With NCI-H2009, the relative viability was 0.114 in experiment [1] (first compound 0.05 µM); 0.155 in experiment [1] (first compound 0.1581 µM); 0.144 in experiment [1] (first compound 0.5 µM); 0.136 in experiment [1] (first compound 1.581 µM); 0.117 in experiment [1] (first compound 5 µM); 0.141 in experiment [2] (first compound 0.05 µM). Further, the relative viability stood at 0.16 in experiment [2] (first compound 0.1581 µM); 0.151 in experiment [2] (first compound 0.5 µM); 0.161 in experiment [2] (first compound 1.581 µM); 0.0978 in experiment [2] (first compound 5 µM); 0.128 in experiment [3] (first compound 0.05 µM); 0.146 in experiment [3] (first compound 0.1581 µM). For the same cell line, the relative viability in experiment [3] (first compound 0.5 µM) came out at 0.15; in experiment [3] (first compound 1.581 µM), 0.186; in experiment [3] (first compound 5 µM) it was 0.127; in experiment [4] (first compound 0.05 µM), 0.0968; in experiment [4] (first compound 0.1581 µM), 0.101; in experiment [4] (first compound 0.5 µM), 0.125. The relative viability in experiment [4] (first compound 1.581 µM) was 0.154; in experiment [4] (first compound 5 µM), 0.123.
On to NCI-H1651, for which the relative viability in experiment [1] (first compound 0.05 µM) stood at 0.127; in experiment [1] (first compound 0.1581 µM), 0.114; in experiment [1] (first compound 0.5 µM), 0.103; in experiment [1] (first compound 1.581 µM), 0.0618; in experiment [1] (first compound 5 µM) it was 0.0864; in experiment [2] (first compound 0.05 µM), 0.117. In addition, the relative viability in experiment [2] (first compound 0.1581 µM) was found to be 0.119; in experiment [2] (first compound 0.5 µM), 0.131; in experiment [2] (first compound 1.581 µM) it was 0.0681; in experiment [2] (first compound 5 µM), 0.0861; in experiment [3] (first compound 0.05 µM), 0.13; in experiment [3] (first compound 0.1581 µM), 0.157. For the same cell line, the relative viability was found to be 0.127 in experiment [3] (first compound 0.5 µM); 0.0971 in experiment [3] (first compound 1.581 µM); 0.138 in experiment [3] (first compound 5 µM); 0.125 in experiment [4] (first compound 0.05 µM); 0.117 in experiment [4] (first compound 0.1581 µM); 0.121 in experiment [4] (first compound 0.5 µM). In addition, the relative viability amounted to 0.122 in experiment [4] (first compound 1.581 µM) and 0.0747 in experiment [4] (first compound 5 µM).
Regarding NCI-H1666, the relative viability was 0.367 in experiment [1] (first compound 0.05 µM); 0.368 in experiment [1] (first compound 0.1581 µM); 0.411 in experiment [1] (first compound 0.5 µM); 0.329 in experiment [1] (first compound 1.581 µM); 0.375 in experiment [1] (first compound 5 µM); 0.229 in experiment [2] (first compound 0.05 µM). Besides, the relative viability in experiment [2] (first compound 0.1581 µM) worked out at 0.27; in experiment [2] (first compound 0.5 µM), 0.273; in experiment [2] (first compound 1.581 µM), 0.198; in experiment [2] (first compound 5 µM), 0.228; in experiment [3] (first compound 0.05 µM) it was 0.386; in experiment [3] (first compound 0.1581 µM), 0.391. Also, the relative viability turned out to be 0.347 in experiment [3] (first compound 0.5 µM); 0.311 in experiment [3] (first compound 1.581 µM); 0.287 in experiment [3] (first compound 5 µM); 0.601 in experiment [4] (first compound 0.05 µM); 0.547 in experiment [4] (first compound 0.1581 µM); 0.479 in experiment [4] (first compound 0.5 µM). Further, the values for the relative viability in experiment [4] (first compound 1.581 µM) and in experiment [4] (first compound 5 µM) were 0.461 and 0.523, respectively.
For NCI-H1734, the relative viability in experiment [1] (first compound 0.05 µM) was determined as 0.136; in experiment [1] (first compound 0.1581 µM) it was 0.152; in experiment [1] (first compound 0.5 µM) it was 0.132; in experiment [1] (first compound 1.581 µM), 0.123; in experiment [1] (first compound 5 µM), 0.102; in experiment [2] (first compound 0.05 µM), 0.162. The relative viability in experiment [2] (first compound 0.1581 µM) was 0.141; in experiment [2] (first compound 0.5 µM) it was 0.15; in experiment [2] (first compound 1.581 µM), 0.115; in experiment [2] (first compound 5 µM) it was 0.12; in experiment [3] (first compound 0.05 µM), 0.123; in experiment [3] (first compound 0.1581 µM), 0.105. For the same cell line, the relative viability was determined as 0.116 in experiment [3] (first compound 0.5 µM); 0.118 in experiment [3] (first compound 1.581 µM); 0.117 in experiment [3] (first compound 5 µM); 0.148 in experiment [4] (first compound 0.05 µM); 0.13 in experiment [4] (first compound 0.1581 µM); 0.15 in experiment [4] (first compound 0.5 µM). The relative viability in experiment [4] (first compound 1.581 µM) was 0.114; in experiment [4] (first compound 5 µM) it was 0.1.
